Results as given in article PMC8964423 (Frontiers in Chemistry, 2022).

Columns and labels:
[1] = test system: A375P; test: Cell viability assay, A375P; assay type: cell-based, human; settings: skin melanoma; treated 2 days; mean ± SD (n = 3)
Method: (§1) HeLa (ATCC; CCL-2) and CaSki (ATCC; CRL-1550) were cultured in Roswell Park Memorial Institute (RPMI) 1,640 Medium (Gibco; #11875-093) supplemented with heat-inactivated 10% fetal bovine serum (FBS) (Gibco; #16000-044), and 1% penicillin (100 units/mL)/streptomycin (100 μg/mL) solution (Gibco; #15240-062). A375P (ATCC; CRL-3224), HEK293T (ATCC; […] CRL-2541) were cultured in Dulbecco's Modified Eagle's Medium (DMEM) (Gibco; #11995-065) supplemented with heat-inactivated 10% FBS (Gibco; #16000-044), and 1% penicillin/streptomycin solution (Gibco; #15240-062). All types of cells were maintained in 100-mm cell culture dishes in a humidified atmosphere of a 5% CO2 incubator at 37°C. All cells were cultured every 2 days using trypsin (Gibco; #12605-010). […] BF-400-S). […] […]), carboplatin (Sigma; […] After changing the culture medium to 100 μL of fresh culture medium, 10 μL of Ez-cytox solution (Dogen; EZ-BULK150) was added to the 96-well plate. […] Synergy).

[2] = test system: Caski; test: Cell viability assay, CaSki; assay type: cell-based, human; settings: cervical cancer; treated 2 days; mean ± SD (n = 3)
Method: as §1

[3] = test system: C8-D1A; test: Cell viability assay, C8-D1A; assay type: cell-based, murine; settings: normal astrocyte; treated 2 days; mean ± SD (n = 3)
Method: as §1

[4] = test system: HEK293T; test: Cell viability assay, HEK293T; assay type: cell-based, human; settings: embryonic kidney cells (non-cancer); treated 2 days; mean ± SD (n = 3)
Method: as §1

[5] = test system: HeLa; test: Cell viability assay (Ez-cytox; Table 1 says MTT), HeLa; assay type: cell-based, human; settings: cervical cancer; treated 2 days; mean ± SD (n = 3)
Method: as §1

[6] = test system: HeLa cells; test: ICP-MS metal accumulation in DNA and proteins of HeLa cells; assay type: cell-based, human; settings: 10 μM, 1, 2, 4 and 8 h
Method: After washing with 1× phospho-buffered saline (PBS, Welgene; ML008-02), HeLa cells harvested by trypsinization (Gibco; #12605-010) were used for either protein or DNA extraction. […] The concentration of the soluble protein fraction was measured by BCA (bicinchoninic acid) protein assay kit (Thermo; #23225). Cell lysates were digested in concentrated HNO3 at 160°C for 3 h and rested at room temperature overnight. The digested cell lysates were diluted in DW to make the final concentration of HNO3 less than 5%. […] The metal accumulations in proteins were expressed as ng Pt or Re/mg protein. In order to quantify metal accumulations in DNA, cells were re-suspended in 300 μL of lysis buffer [100 mM NaCl, 25 mM EDTA (Acros; #11843-5000), 0.5% SDS (w/v) (Acros; #230420100), 0.1 mg/ml proteinase K (Merck; #70663-4CN), and 10 mM Tris-HCl, pH 8.0] and incubated at 50°C overnight. A 300 μL of phenol:chloroform:isoamyl alcohol mixture (25:24:1, Sigma; #77617) was added to cell lysates and shaken vigorously. After centrifugation at 13,000 g for 5 min, upper layer containing DNA, out of two layers, was transferred to a new tube. […] DNA concentration was quantified by measuring the absorbance at 260 nm. […] Metal contents in DNA were quantified by ICP-MS as same method as measuring metal contents in protein. The metal accumulations in DNA were expressed as ng Pt or Re/mg DNA.

[7] = test system: HeLa cells; test: Flow cytometry apoptosis analysis (Annexin V-FITC) in HeLa cells; assay type: cell-based, human; settings: 10 μM TRIP or 50 μM etoposide, 24 h
Method: HeLa cells were treated with each compound for the designated time and dose, or transfected with siRNAs using Lipofectamine RNAiMAX (Thermo; #15338100). The cells were trypsinized and re-suspended in PBS containing 2% FBS (Gibco; #16000-044). To measure mitochondrial reactive oxygen species (ROS) and polarization, we stained the same number of re-suspended cells with either 2.5 μM of mitoSOX (Invitrogen; M36008) or 500 nM of TMRE (tetramethylrhodamine ethyl ester) (Invitrogen; T669) at 37°C for 1 h. To measure apoptosis, we also stained the same number of re-suspended cells with Annexin V-FITC Apoptosis Staining and Detection Kit (Abcam; ab14085) according to the manufacturer’s protocol. The stained cells were subjected to flow cytometry analysis using FACSAria II (BD).

[8] = test system: CHOP; test: Immunoblotting of CHOP signaling pathways in HeLa cells; assay type: cell-based, human
Method: The concentration of the soluble protein fraction was measured by BCA protein assay kit (Thermo; #23225).

[9] = test system: HeLa cells; test: Mitochondrial monitoring in live HeLa cells (mitochondrial fission); settings: 10 μM TRIP, 50 μM Mdivi-1 pre-treated 1 h

Structure (SMILES) | IC50 [1] | IC50 [2] | IC50 [3] | IC50 [4] | IC50 [5] | other results
N.N.O=C([O-])C1(C(=O)[O-])CCC1.[Pt+2] [Carboplatin, carboplatin] | 23 ± 0.85 µM | 22.73 ± 0.2 µM | 23.66 ± 0.21 µM | 49.6 ± 6.99 µM | 40.5 ± 2.62 µM | –
N.N.[Cl][Pt][Cl] [Cisplatin, cisplatin] | 8.35 ± 0.37 µM | 7.89 ± 0.26 µM | 10.2 ± 0.23 µM | 8.33 ± 0.3 µM | 9.2 ± 0.38 µM | metal accumulation in DNA and proteins (Pt for cisplatin, Re for TRIP) [6]: induced the DNA platination in a time-dependent manner
COc1cc([C@@H]2c3cc4c(cc3[C@@H](O[C@@H]3O[C@@H]5CO[C@@H](C)O[C@H]5[C@H](O)[C@H]3O)[C@H]3COC(=O)[C@H]23)OCO4)cc(OC)c1O [Etoposide, etoposide] | – | – | – | – | – | mode of cell death [7]: via apoptosis, not necrosis
COc1cc(-n2c(=S)[nH]c3ccccc3c2=O)c(Cl)cc1Cl [Mdivi-1] | – | – | – | – | – | effect on TRIP-induced CHOP activation ([8]; 50 μM Mdivi-1 co-treatment with TRIP): accelerated TRIP-induced CHOP activation; effect on thapsigargin-induced CHOP activation ([8]; Mdivi-1 co-treatment with thapsigargin): did not boost thapsigargin-induced CHOP activation; mitochondrial fission [9]: could be blocked by Mdivi-1 treatment
C/C=C(/C)C(=O)O[C@H]1C(C)=C2[C@H]([C@@H]1OC(=O)CCCCCCC)[C@@](C)(OC(C)=O)C[C@H](OC(=O)CCC)[C@@]1(O)[C@H]2OC(=O)[C@@]1(C)O [thapsigargin] | – | – | – | – | – | time to activation of p-eIF2α/ATF4 signaling pathway ([8]; 200 nM thapsigargin): ≤ 1 h; time after which CHOP activation was observed ([8]; 200 nM thapsigargin or 10 μM TRIP): 2 h
